This note sets out measurements from paper PMC9268515, “UGT1A1 and UGT1A9 Are Responsible for Phase II Metabolism of Tectorigenin and Irigenin In Vitro” (Molecules, 2022).

This data set is described as follows: Stability experiment under different storage conditions. Format: physicochemical. The note with it: autosampler 12 h at 4 °C. How it is done: In the stability experiment, we evaluated the stability of tectorigenin and irigenin, as well as their metabolites, under different conditions. […] Metabolites (M, M1, and M2) were stable in the inactivated metabolic system for 2 h (held constant at approximately 25 °C) and after storage for 7 days (−80 °C), as well as in the pretreated samples placed in the autosampler for 12 h at 4 °C.

Turning to `COc1c(O)cc2occ(-c3ccc(O)cc3)c(=O)c2c1O` [Tectorigenin, 5,7,4′-trihydroxyl-6-methoxyl isoflavone], the “Stability in pretreated samples in the autosampler” value is “stable”. For the setting “printed as below ±5%”, the “RE and RSD values in pretreated samples in the autosampler” value was under 5%.
